Laboratory results taken from US6342537B1, “Gel for treatment of skin diseases and for disinfection of the skin” (priority 1994, dated 2002).
Several values for one entry are separate records, joined by “and”; a condition that tells them apart may be missing. Equal entries are not always repeated.

Tested on: herpes simplex virus (HSV) type 1
Test: Inactivation of herpes simplex virus in infected MRC-5 cells by alcohols (Example 25); for HSV - CPE after 44 hours with the detecting cell-layer: key: 0: no CPE; 1: a few; 2: several; 3: all cells infected with HSV
Format: cell-based
Settings: for HSV - CPE after 44 hours with the detecting cell-layer: duplicate wells; for inactivation of herpes simplex virus (in words): HSV type 1 infected MRC-5 cells
Description: Ethanol is an accepted disinfectant for viruses with an envelope. The purpose of this study was to measure the inactivating effect of “short-chained alcohols” on virus-infected cells.
Four 96 well plates with confluent MRC-5 cell were infected with herpes simplex virus (HSV) type 1. After appearance of 50% cytopathic effect (CPE), the culture medium was removed, and rows of 12 wells were treated with 25 μl/well of the alcohols or buffer after the following scheme: The first row with undiluted, and the following with 96%, 90%, 80%, 70%, 60% and 50% alcohol, respectively—all dilutions performed in buffer (PBS). To the last row was added buffer. After 2, 4, 8, 16 and 32 min, respectively, two wells in each row were emptied and the cells overlaid with PBS. The plate was then frozen at —80° C. Afterwards the wells were seeded with a detection layer of MRC-5 cells and the plates were placed at 37° C. for 44 hours. Virus surviving the treatment with alcohol was detected by the appearance of CPE, characteristic for HSV in the detection monolayer.

[1] = alcohol undiluted, 2 min with alcohol

Molecule	HSV - CPE after 44 hours with the detecting cell-layer (50% alcohol in PBS, 2 min)	HSV - CPE after 44 hours with the detecting cell-layer (50% alcohol in PBS, 4 min)	HSV - CPE after 44 hours with the detecting cell-layer (50% alcohol in PBS, 8 min)	HSV - CPE after 44 hours with the detecting cell-layer (50% alcohol in PBS, 16 min)	HSV - CPE after 44 hours with the detecting cell-layer (50% alcohol in PBS, 32 min)	HSV - CPE after 44 hours with the detecting cell-layer (60% alcohol in PBS, 2 min)	HSV - CPE after 44 hours with the detecting cell-layer (60% alcohol in PBS, 4 min)	HSV - CPE after 44 hours with the detecting cell-layer (60% alcohol in PBS, 8 min)	HSV - CPE after 44 hours with the detecting cell-layer (60% alcohol in PBS, 16 min)	HSV - CPE after 44 hours with the detecting cell-layer (60% alcohol in PBS, 32 min)	HSV - CPE after 44 hours with the detecting cell-layer (70% alcohol in PBS, 2 min)	HSV - CPE after 44 hours with the detecting cell-layer (70% alcohol in PBS, 4 min)	HSV - CPE after 44 hours with the detecting cell-layer (70% alcohol in PBS, 8 min)	HSV - CPE after 44 hours with the detecting cell-layer (70% alcohol in PBS, 16 min)	HSV - CPE after 44 hours with the detecting cell-layer (70% alcohol in PBS, 32 min)	HSV - CPE after 44 hours with the detecting cell-layer (80% alcohol in PBS, 2 min)	HSV - CPE after 44 hours with the detecting cell-layer (80% alcohol in PBS, 4 min)	HSV - CPE after 44 hours with the detecting cell-layer (80% alcohol in PBS, 8 min)	HSV - CPE after 44 hours with the detecting cell-layer (80% alcohol in PBS, 16 min)	HSV - CPE after 44 hours with the detecting cell-layer (80% alcohol in PBS, 32 min)	further results
CO [Methanol]	1 and 0	1	1 and 2	2	1	1	0 and 1	1	0 and 1	1	1	1	1	1	0 and 1	1	0	1	0 and 1	1 and 0	HSV - CPE after 44 hours with the detecting cell-layer (90% alcohol in PBS, 2 min): 0; HSV - CPE after 44 hours with the detecting cell-layer (90% alcohol in PBS, 4 min): 0; HSV - CPE after 44 hours with the detecting cell-layer (90% alcohol in PBS, 8 min): 0 and 1; HSV - CPE after 44 hours with the detecting cell-layer (90% alcohol in PBS, 16 min): 1; HSV - CPE after 44 hours with the detecting cell-layer (90% alcohol in PBS, 32 min): 1 and 0; HSV - CPE after 44 hours with the detecting cell-layer (96% alcohol in PBS, 2 min): 0; HSV - CPE after 44 hours with the detecting cell-layer (96% alcohol in PBS, 4 min): 0; HSV - CPE after 44 hours with the detecting cell-layer (96% alcohol in PBS, 8 min): 0; HSV - CPE after 44 hours with the detecting cell-layer (96% alcohol in PBS, 16 min): 0 and 1; HSV - CPE after 44 hours with the detecting cell-layer (96% alcohol in PBS, 32 min): 1 and 0; inactivation of herpes simplex virus (in words): able to inactivate herpes simplex virus even intracellular virus; HSV - CPE after 44 hours with the detecting cell-layer [1]: 0; HSV - CPE after 44 hours with the detecting cell-layer (alcohol undiluted, 4 min): 0; HSV - CPE after 44 hours with the detecting cell-layer (alcohol undiluted, 8 min): 0; HSV - CPE after 44 hours with the detecting cell-layer (alcohol undiluted, 16 min): 0; HSV - CPE after 44 hours with the detecting cell-layer (alcohol undiluted, 32 min): 0
Butanol	0 and 2	2	2	0	1 and 0	0 and 2	2	2 and 0	0	1 and 0	0	0 and 1	1 and 0	0 and 1	1	0	0 and 1	1 and 0	0	1 and 0	HSV - CPE after 44 hours with the detecting cell-layer (90% alcohol in PBS, 2 min): 0; HSV - CPE after 44 hours with the detecting cell-layer (90% alcohol in PBS, 4 min): 0 and 1; HSV - CPE after 44 hours with the detecting cell-layer (90% alcohol in PBS, 8 min): 0; HSV - CPE after 44 hours with the detecting cell-layer (90% alcohol in PBS, 16 min): 1 and 0; HSV - CPE after 44 hours with the detecting cell-layer (90% alcohol in PBS, 32 min): 0 and 3; HSV - CPE after 44 hours with the detecting cell-layer (96% alcohol in PBS, 2 min): 0; HSV - CPE after 44 hours with the detecting cell-layer (96% alcohol in PBS, 4 min): 0; HSV - CPE after 44 hours with the detecting cell-layer (96% alcohol in PBS, 8 min): 0 and 2; HSV - CPE after 44 hours with the detecting cell-layer (96% alcohol in PBS, 16 min): 0; HSV - CPE after 44 hours with the detecting cell-layer (96% alcohol in PBS, 32 min): 0; inactivation of herpes simplex virus (in words): able to inactivate herpes simplex virus even intracellular virus; HSV - CPE after 44 hours with the detecting cell-layer [1]: 0; HSV - CPE after 44 hours with the detecting cell-layer (alcohol undiluted, 4 min): 0; HSV - CPE after 44 hours with the detecting cell-layer (alcohol undiluted, 8 min): 0; HSV - CPE after 44 hours with the detecting cell-layer (alcohol undiluted, 16 min): 0; HSV - CPE after 44 hours with the detecting cell-layer (alcohol undiluted, 32 min): 0
CC(C)O [Isopropanol]	3 and 2	3 and 2	3	3 and 2	3	2	1	2 and 1	2 and 3	3	2	1	1 and 0	1	0 and 2	1	0 and 1	1	0 and 1	1 and 3	HSV - CPE after 44 hours with the detecting cell-layer (90% alcohol in PBS, 2 min): 0 and 1; HSV - CPE after 44 hours with the detecting cell-layer (90% alcohol in PBS, 4 min): 0; HSV - CPE after 44 hours with the detecting cell-layer (90% alcohol in PBS, 8 min): 0; HSV - CPE after 44 hours with the detecting cell-layer (90% alcohol in PBS, 16 min): 0; HSV - CPE after 44 hours with the detecting cell-layer (90% alcohol in PBS, 32 min): 0; HSV - CPE after 44 hours with the detecting cell-layer (96% alcohol in PBS, 2 min): 0; HSV - CPE after 44 hours with the detecting cell-layer (96% alcohol in PBS, 4 min): 0; HSV - CPE after 44 hours with the detecting cell-layer (96% alcohol in PBS, 8 min): 0; HSV - CPE after 44 hours with the detecting cell-layer (96% alcohol in PBS, 16 min): 0; HSV - CPE after 44 hours with the detecting cell-layer (96% alcohol in PBS, 32 min): 0; inactivation of herpes simplex virus (in words): able to inactivate herpes simplex virus even intracellular virus; HSV - CPE after 44 hours with the detecting cell-layer [1]: 0; HSV - CPE after 44 hours with the detecting cell-layer (alcohol undiluted, 4 min): 0; HSV - CPE after 44 hours with the detecting cell-layer (alcohol undiluted, 8 min): 0; HSV - CPE after 44 hours with the detecting cell-layer (alcohol undiluted, 16 min): 0; HSV - CPE after 44 hours with the detecting cell-layer (alcohol undiluted, 32 min): 0
CCCO [Propanol]	2	3	3 and 2	3 and 2	1	1 and 2	2 and 1	1 and 0	1 and 0	0	1 and 2	1 and 0	1 and 0	0	0	0	0	0 and 1	0	0	HSV - CPE after 44 hours with the detecting cell-layer (90% alcohol in PBS, 2 min): 0; HSV - CPE after 44 hours with the detecting cell-layer (90% alcohol in PBS, 4 min): 0; HSV - CPE after 44 hours with the detecting cell-layer (90% alcohol in PBS, 8 min): 0; HSV - CPE after 44 hours with the detecting cell-layer (90% alcohol in PBS, 16 min): 0; HSV - CPE after 44 hours with the detecting cell-layer (90% alcohol in PBS, 32 min): 0; HSV - CPE after 44 hours with the detecting cell-layer (96% alcohol in PBS, 2 min): 0; HSV - CPE after 44 hours with the detecting cell-layer (96% alcohol in PBS, 4 min): 0; HSV - CPE after 44 hours with the detecting cell-layer (96% alcohol in PBS, 8 min): 0; HSV - CPE after 44 hours with the detecting cell-layer (96% alcohol in PBS, 16 min): 0; HSV - CPE after 44 hours with the detecting cell-layer (96% alcohol in PBS, 32 min): 0; inactivation of herpes simplex virus (in words): able to inactivate herpes simplex virus even intracellular virus; HSV - CPE after 44 hours with the detecting cell-layer [1]: 0; HSV - CPE after 44 hours with the detecting cell-layer (alcohol undiluted, 4 min): 0; HSV - CPE after 44 hours with the detecting cell-layer (alcohol undiluted, 8 min): 0; HSV - CPE after 44 hours with the detecting cell-layer (alcohol undiluted, 16 min): 0; HSV - CPE after 44 hours with the detecting cell-layer (alcohol undiluted, 32 min): 0
